For this assay, the system named is penile erection. The assay is described as follows: Penile erection in rat. The class given is in vivo. To be noted: male Fischer 344 rats, intraperitoneal, observed 60 minutes, mean number. Here is the method:
(This test was carried out according to a similar manner to that described in Jpn. J. Pharmacol., Vol. 64, 147–153 (1994))
Male Fischer 344 rats at the age of 8 weeks (n=7) were used. All rats were handled 3 minutes a day for three successive days before the tests. The rats were tested in groups of seven and various doses of the test compound were given in semi-randomized order. The test compounds were suspended in 0.5% methyl-cellulose immediately before use, and given intraperitoneally in a volume of 1 ml/kg just before the start of test. […] A mirror was situated behind each box […]. Data was expressed as a mean number.

With `O=C(NC1CCc2ccccc2C1)c1ccncc1` (stereo not shown) [Example 8, 2-(Pyridin-4-ylcarbonylamino)-1,2,3,4-tetrahydro-naphthalene], the “Penile Erection (Number/hr)” value (dose 0.1 mg/kg) is listed as 0.60 Number/hr.
Consider `O=C(NC1CCc2ccccc2C1)c1ccc(F)cc1` (stereo not shown) [Example 6, 2-(4-Fluorobenzoylamino)-1,2,3,4-tetrahydronaphthalene], for which the “Penile Erection (Number/hr)” value (dose 0.32 mg/kg) is 0.60 Number/hr.
As for `CC1=CCC(NC(=O)c2ccncc2)CC1` (stereo not shown) [Example 7, 1-(pyridin-4-ylcarbonylamino)-4-methylcyclohex-3-ene], the “Penile Erection (Number/hr)” value (dose 0.1 mg/kg) is 0.71 Number/hr.
Take `O=C(Nc1ccc(F)cc1)N1CC=CCC1` [Example 2, 1-(4-fluorophenylcarbamoyl)-1,2,3,6-tetrahydropyridine]: the “Penile Erection (Number/hr)” value (dose 0.32 mg/kg) was 0.57 Number/hr.
